These compounds were tested against FAS (Homo sapiens, UniProt P49327) (assay: FAS activity inhibition (Assay #1 residual NADPH/resazurin or Assay #2 CoA/CPM thio-reactive dye)). Settings: measured through one of the two assays, at least one experiment or the average of multiple experiments.
Type: biochemical
Experimental: FAS activity was measured through one of the two following assays.
Inhibition of FAS activity can be measured based on the detection of residual NADPH substrate after the FAS assay is quenched. This assay is run as a 10 μL endpoint assay in 384-well format, where the reaction contains 20 μM malonyl-CoA, 2 μM acetyl-CoA, 30 μM NADPH and 40 nM FAS in 50 mM sodium phosphate, pH 7.0. The assay is run by sequentially dispensing 5 μl of a malonyl-CoA solution, then enzyme solution Containing the acetyl-CoA, and NADPH) into a black, low volume assay plate (Greiner 784076) pre-dispensed with 100 nL compound solutions in DMSO. The reaction is incubated at ambient temperature for 60 minutes, then quenched with 5 μL, of a developing solution composed of 90 μM resazurin, 0.3 IU/ml diaphorase in 50 mM sodium phosphate, pH 7.0. The developed reaction is read on a Molecular Devices Analyst or Acquest (or equivalent) plate reader using a 530 nm excitation wavelength filter, a 580 nm emission filter, and 561 nm dichroic filter. The test compounds are prepared in neat DMSO at a concentration of 10 mM. For inhibition curves, compounds are diluted using a three fold serial dilution and tested at 11 concentrations (e.g. 25 μM-0.42 nM). Curves are analysed using ActivityBase and XLfit, and results are expressed as pIC50 values.
Inhibition of FAS can also be quantified based on the detection of the CoA products with a thio-reactive coumarin dye. This assay is run as a […] assay in 384-well format, where the reaction contains 20 μM malonyl-CoA, 20 μM acetyl-CoA, 40 μM NADPH and 2 nM FAS in 50 mM sodium phosphate, pH 7.0, and 0.04% Tween-20. The assay is run by adding […] enzyme solution to a black, low volume assay plate (Greiner 784076) pre-dispensed with 100 nl compound solutions in DMSO. After 30 minutes, 5 μL substrate is added, and the reaction incubated at ambient temperature for an additional 60 minutes. The reaction is then quenched with 100 μL of 6M guanidine-HCl containing 50 μM CPM (7-diethylamino-3-(4′-maleimidylphenyl)-4-methylcoumarin CPM; thio-reactive dye), and incubated for 30 minutes. The plate is read on an Envision (PerkinElmer) or equivalent plate reader using a 380 nm excitation wavelength filter, and a 486 nm emission filter. Data fitting and compound preparations are done as described above.

FAS, sequence (P49327 whole entry): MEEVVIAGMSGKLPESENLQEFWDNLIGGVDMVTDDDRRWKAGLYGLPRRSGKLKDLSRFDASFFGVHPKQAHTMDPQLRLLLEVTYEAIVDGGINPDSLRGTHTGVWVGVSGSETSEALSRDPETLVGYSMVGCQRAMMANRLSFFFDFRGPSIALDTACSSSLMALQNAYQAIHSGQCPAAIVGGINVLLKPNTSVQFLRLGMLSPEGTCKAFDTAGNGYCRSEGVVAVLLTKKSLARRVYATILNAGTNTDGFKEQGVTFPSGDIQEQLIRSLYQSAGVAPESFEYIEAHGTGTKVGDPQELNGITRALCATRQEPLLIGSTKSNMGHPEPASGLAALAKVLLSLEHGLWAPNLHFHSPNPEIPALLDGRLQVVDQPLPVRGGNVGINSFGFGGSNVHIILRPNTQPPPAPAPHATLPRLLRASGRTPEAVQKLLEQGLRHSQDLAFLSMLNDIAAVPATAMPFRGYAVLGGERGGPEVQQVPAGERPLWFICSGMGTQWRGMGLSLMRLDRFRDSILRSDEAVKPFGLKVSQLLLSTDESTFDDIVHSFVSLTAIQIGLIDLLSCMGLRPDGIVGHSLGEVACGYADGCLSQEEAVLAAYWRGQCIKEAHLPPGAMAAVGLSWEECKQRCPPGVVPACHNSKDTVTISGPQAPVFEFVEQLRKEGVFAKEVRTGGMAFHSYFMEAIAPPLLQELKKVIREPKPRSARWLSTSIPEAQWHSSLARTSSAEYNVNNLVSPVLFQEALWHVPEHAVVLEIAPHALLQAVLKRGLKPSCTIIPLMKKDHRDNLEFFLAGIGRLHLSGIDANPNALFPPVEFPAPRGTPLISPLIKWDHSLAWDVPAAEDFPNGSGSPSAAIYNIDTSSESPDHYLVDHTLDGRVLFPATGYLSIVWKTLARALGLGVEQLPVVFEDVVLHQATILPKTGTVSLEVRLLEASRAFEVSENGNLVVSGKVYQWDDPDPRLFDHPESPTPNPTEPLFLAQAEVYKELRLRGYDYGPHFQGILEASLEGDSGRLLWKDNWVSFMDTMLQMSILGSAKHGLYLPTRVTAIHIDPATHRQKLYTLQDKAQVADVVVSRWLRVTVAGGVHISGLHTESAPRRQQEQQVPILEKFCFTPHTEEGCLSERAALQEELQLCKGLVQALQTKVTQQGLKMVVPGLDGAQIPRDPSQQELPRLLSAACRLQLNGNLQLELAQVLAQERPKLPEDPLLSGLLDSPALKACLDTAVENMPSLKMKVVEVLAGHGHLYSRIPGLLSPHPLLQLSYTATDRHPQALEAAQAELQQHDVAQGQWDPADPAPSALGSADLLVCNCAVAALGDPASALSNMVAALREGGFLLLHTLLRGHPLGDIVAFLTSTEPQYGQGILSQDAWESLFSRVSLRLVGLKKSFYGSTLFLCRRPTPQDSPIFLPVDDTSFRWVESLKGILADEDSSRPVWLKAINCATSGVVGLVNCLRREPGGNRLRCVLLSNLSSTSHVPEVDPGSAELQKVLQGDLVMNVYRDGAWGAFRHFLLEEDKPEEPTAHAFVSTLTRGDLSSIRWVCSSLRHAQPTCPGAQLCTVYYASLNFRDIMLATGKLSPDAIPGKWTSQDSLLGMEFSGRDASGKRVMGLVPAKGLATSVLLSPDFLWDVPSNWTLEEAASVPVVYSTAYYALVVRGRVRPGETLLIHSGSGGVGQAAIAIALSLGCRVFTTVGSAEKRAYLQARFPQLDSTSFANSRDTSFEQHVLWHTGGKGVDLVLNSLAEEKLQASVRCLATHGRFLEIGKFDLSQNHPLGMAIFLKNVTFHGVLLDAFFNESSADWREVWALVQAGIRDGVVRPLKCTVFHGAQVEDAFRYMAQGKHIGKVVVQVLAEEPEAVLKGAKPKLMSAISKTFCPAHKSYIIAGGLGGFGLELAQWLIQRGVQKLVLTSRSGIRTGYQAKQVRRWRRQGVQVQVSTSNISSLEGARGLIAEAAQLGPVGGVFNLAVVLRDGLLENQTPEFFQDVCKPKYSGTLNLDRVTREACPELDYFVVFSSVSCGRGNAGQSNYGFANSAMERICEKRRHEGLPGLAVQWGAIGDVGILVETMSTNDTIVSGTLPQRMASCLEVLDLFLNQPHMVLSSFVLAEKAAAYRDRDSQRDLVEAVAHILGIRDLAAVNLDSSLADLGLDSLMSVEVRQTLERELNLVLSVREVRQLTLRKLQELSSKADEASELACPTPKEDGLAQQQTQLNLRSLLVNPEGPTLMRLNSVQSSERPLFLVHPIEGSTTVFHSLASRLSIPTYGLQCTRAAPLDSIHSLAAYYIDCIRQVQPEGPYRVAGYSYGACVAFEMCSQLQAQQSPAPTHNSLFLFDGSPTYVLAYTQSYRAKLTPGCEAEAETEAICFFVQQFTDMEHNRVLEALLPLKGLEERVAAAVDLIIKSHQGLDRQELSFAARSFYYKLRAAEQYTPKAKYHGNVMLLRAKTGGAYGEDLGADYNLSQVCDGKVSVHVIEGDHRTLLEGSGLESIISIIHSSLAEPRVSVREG

| SMILES | IC50 [nM] |
| --- | --- |
| O=C1COC2(CCN(C(CO)c3ccc(-c4ccc5cccnc5c4)cc3)CC2)CN1C1CC1 (racemic) [Example 22, 4-cyclopropyl-9-(2-hydroxy-1-(4-(quinolin-7-yl)phenyl)ethyl)-1-oxa-4,9-diazaspiro[5.5]undecan-3-one] | 20 |
| CC(c1ccc(-c2ccc3cccnc3c2)cc1)N1CCC2(CC1)CN(C1CC1)C(=O)CO2 (centres unmarked) [Example 13, 4-cyclopropyl-9-(1-(4-(quinolin-7-yl)phenyl)ethyl)-1-oxa-4,9-diazaspiro[5.5]undecan-3-one] | 50 |
| O=C(O)CC(c1ccc(-c2ccc3cccnc3c2)cc1)N1CCC2(CC1)CN(C1CC1)C(=O)CO2 (centres unmarked) [Example 6, 3-(4-cyclopropyl-3-oxo-1-oxa-4,9-diazaspiro[5.5]undecan-9-yl)-3-(4-(quinolin-7-yl)phenyl)propanoic acid] | 501 |
| COc1ccc(-c2ccc(C(C(N)=O)N3CCC4(CC3)CN(C3CC3)C(=O)CO4)c(F)c2)cc1 (centres unmarked) [Example 33, 2-(4-cyclopropyl-3-oxo-1-oxa-4,9-diazaspiro[5.5]undecan-9-yl)-2-(3-fluoro-4′-methoxy-[1,1′-biphenyl]-4-yl)acetamide] | 200 |

Continued, values first:

| IC50 [nM] | SMILES |
| --- | --- |
| 3 | NC(=O)C(c1ccc(-c2ccc3cccnc3c2)cc1F)N1CCC2(CC1)CN(C1CC1)C(=O)CO2 (single isomer, unassigned; (+)) [Example 9, (+)-2-(4-cyclopropyl-3-oxo-1-oxa-4,9-diazaspiro[5.5]undec-9-yl)-2-[2-fluoro-4-(7-quinolinyl)phenyl]acetamide] |
| 3 | NC(=O)C(c1ccc(-c2ccc3cccnc3c2)cc1F)N1CCC2(CC1)CN(C1(CO)CC1)C(=O)CO2 (single isomer, unassigned; (-)) [Example 30, (−)-2-(2-fluoro-4-(quinolin-7-yl)phenyl)-2-(4-(1-(hydroxymethyl)cyclopropyl)-3-oxo-1-oxa-4,9-diazaspiro[5.5]undecan-9-yl)acetamide] |
| 1 | NC(=O)C(c1c(F)cc(-c2ccc3cccnc3c2)cc1F)N1CCC2(CC1)CN(C1CC1)C(=O)CO2 (single isomer, unassigned; (+)) [Example 73, (+)-2-(4-cyclopropyl-3-oxo-1-oxa-4,9-diazaspiro[5.5]undecan-9-yl)-2-(2,6-difluoro-4-(quinolin-7-yl)phenyl)acetamide] |
| 4 | COc1c(-c2ccc(C(C(N)=O)N3CCC4(CC3)CN(C3CC3)C(=O)CO4)c(F)c2)ccc2cccnc12 (single isomer, unassigned; (-)) [Example 78, (−)-2-(4-cyclopropyl-3-oxo-1-oxa-4,9-diazaspiro[5.5]undecan-9-yl)-2-(2-fluoro-4-(8-methoxyquinolin-7-yl)phenyl)acetamide] |
